Article PMC10002963, “[4+2]-Cycloaddition to 5-Methylidene-Hydantoins and 5-Methylidene-2-Thiohydantoins in the Synthesis of Spiro-2-Chalcogenimidazolones” (International Journal of Molecular Sciences, 2023)
In brackets after ≈: the same amount, converted by molar mass. Where two headings read alike, the source gives them in different places.

Key:
[1] = tested on: E. coli BW25113 DTC; assay: Minimal inhibitory concentration, E. coli BW25113 DTC; type: cell-based, Escherichia coli
Protocol: (§1) Then the minimal inhibitory concentration (MIC) was measured for E. coli BW25113 DTC and E. coli K-12 (WT) for the 12 most bacteriotoxic compounds from the plate test.
(§2) Determination of Minimal Inhibitory Concentration (MIC). MIC values were determined by monitoring growth in 96-well plates of E. coli cultures exposed to serial dilutions of compounds. Specifically, overnight E. coli BW25113 DTC and K12 cultures were diluted in 96-well plates to an OD590 of 0.01 in LB medium. The wells were then supplemented with the solution of each tested compound at concentrations of 1 mM, 500 µM, 250 µM, 125 µM, 62.5 µM, 31.25 µM, 15.63 µM, 7.81 µM, 3.91 µM, and 1.95 µM. Then the plates were incubated with shaking (200 r.p.m.) overnight at 37°C, and cell growth was assessed by scanning OD590 each well with a VictorX5 reader.

[2] = tested on: VA13 cell line; assay: MTT cytotoxicity assay, VA13; type: cell-based, human
Protocol: (§3) Some of the obtained spiro-derivatives were tested for cytotoxicity using the standard MTT assay. Cytotoxicity was evaluated using the cell lines of various etiologies: breast cancer MCF7, human lung carcinoma A549, non-cancer human embryonic kidney cell line HEK293T, and non-cancer lung fibroblast VA13 cell line. Lung cancers and breast cancers are among the most common causes of tumor lesions and related death in the world, and non-cancerous cells were applied for the specificity of action evaluation. The results are shown in Table 5; the dose-response dependency graphs are available in Supplementary Information.
(§4) Cell cultures. Human embryonic kidney HEK293T cell line was kindly provided by Dr. E. Knyazhanskaya; immortalized human fibroblasts cell line VA13 was kindly provided by Dr. M. Rubtsova; human breast cancer cell line MCF7 and human lung adenocarcinoma cell line A549 were kindly provided by Dr. S. Dmitriev. MCF7, VA13, A549, and HEK293T cell lines were maintained in DMEM/F-12 (Thermo Fisher Scientific, Waltham, Massachusetts, USA) culture medium containing 10% fetal bovine serum (Thermo Fisher Scientific, Waltham, Massachusetts, USA) and 50 µg/mL penicillin and 0.05 mg/mL streptomycin at 37°C (Thermo Fisher Scientific, Waltham, Massachusetts, USA) in 5% CO2. Cells were maintained at 37°C in a humidified incubator MCO-18AC (Sanyo, Japan) supplied with 5% CO2. Cell cultures were tested for the absence of mycoplasma.
(§5) In Vitro Survival Assay (MTT Assay). The cytotoxicity was tested using the MTT (3-(4,5-dimethylthiazol-2-yl)2,5-diphenyl tetrazolium bromide) assay with some modifications. A total of 2500 cells per well for the MCF7, HEK293T cell lines, 3000 cells for the A549 cell line, or 4000 cells per well for the VA-13 cell line were plated out in 135 µL of DMEM-F12 media (Gibco, USA) in a 96-well plate and then incubated in the 5% CO2 incubator for first 20 h without treating. After this, 15 µL of media-DMSO solutions of tested substances were added to the cells (final DMSO concentrations in the media were 0,5% or less) and treated for65 h with 45 nM–100 µM (eight dilutions) of our substances (triplicate each) and doxorubicin as a control substance. Then the MTT reagent (Paneco LLC, Moscow, Russia) was added to cells up to the final concentration of 0.5 g/L (10 × stock solution in PBS was used), and cells were incubated for 2 h at 37 °C under an atmosphere of 5% CO2. Then the MTT solution was discarded, and 140 µL of DMSO (PharmaMed LLC, Russia) was added. The plates were swayed on a shaker (200 rpm) to dissolve the formazan. The absorbance was measured using a microplate reader (VICTOR ×5 Light Plate Reader, PerkinElmer, USA) at a wavelength of 555 nm (in order to measure formazan concentration). The results were used to construct dose-response graphs and to estimate IC50absvalues (IC50abs is the concentration resulting in a two-fold decrease in the number of cells in comparison with the untreated cells) and, in some cases, IC50 values (IC50 is the concentration resulting in half of the maximal cytotoxic effect) with GraphPadSoftware, Inc., San Diego, CA, USA.

[3] = tested on: E. coli K-12 (WT); assay: Minimal inhibitory concentration, E. coli K-12; type: cell-based, Escherichia coli; details: LB medium, overnight 37°C, >1000 = inactive in this test
Protocol: as §1, §2

[4] = tested on: MCF7 cell line; assay: MTT cytotoxicity assay, MCF7; type: cell-based, human
Protocol: as §3, §4, §5

[5] = tested on: HEK293T cell line; assay: MTT cytotoxicity assay, HEK293T; type: cell-based, human
Protocol: as §3, §4, §5

[6] = tested on: A549 cell line; assay: MTT cytotoxicity assay, A549; type: cell-based, human
Protocol: as §3, §4, §5

[7] = E. coli BW25113 DTC, LB medium, overnight 37°C, >1000 = inactive in this test
[8] = VA13, 65-h treatment, MTT, Cmax 100 µM, read-out: IC50abs
[9] = MCF7, 65-h treatment, MTT, Cmax 100 µM, read-out: IC50abs
[10] = 65-h treatment, Cmax 100 µM, read-out: IC50abs
[11] = A549, 65-h treatment, MTT, Cmax 100 µM, read-out: IC50abs
[12] = Homo sapiens, VA-13, VA13, 65-h treatment, MTT, Cmax 100 µM, read-out: IC50abs
[13] = Homo sapiens, HEK-293T, 65-h treatment, Cmax 100 µM, read-out: IC50abs
[14] = Homo sapiens, A549, 65-h treatment, MTT, Cmax 100 µM, read-out: IC50abs
[15] = Homo sapiens, MCF7, 65-h treatment, MTT, Cmax 100 µM, read-out: IC50abs
[16] = VA13, MTT, Table S1, read-out: IC50 (concentration resulting in half of the maximal cytotoxic effect)
[17] = MCF7, MTT, Table S1, read-out: IC50 (concentration resulting in half of the maximal cytotoxic effect)
[18] = Table S1, read-out: IC50 (concentration resulting in half of the maximal cytotoxic effect)
[19] = A549, MTT, Table S1, read-out: IC50 (concentration resulting in half of the maximal cytotoxic effect)

SMILES	IC50 [2, 8]	IC50 [4, 9]	IC50 [5, 10]	IC50 [6, 11]	IC50 [5, 13]	also measured
COc1ccc(N2C(=O)C3(CCC(C)=C(C)C3)NC2=S)cc1 (racemic) [Compound 60]	75.3 ± 17 µM	98.3 ± 19.8 µM	10.2 ± 1.3 µM	52.2 ± 5.7 µM		MIC [1, 7]: >1000 µM; MIC [3]: >1000 µM
O=C1N(c2ccccc2)C(=S)NC12CC1C=CC2CC1 (stereo not drawn) [Compound 45a]					21.3 ± 2.3 µM	IC50 [2, 12]: > 100 µM; IC50 ([4]; Homo sapiens, MCF7, 65-h treatment, MTT, Cmax 100 µM, marked **, read-out: IC50abs, calculated by data extrapolation, exceeds Cmax): > 100 µM; IC50 [6, 14]: 85.2 ± 10.1 µM
COc1cccc(N2C(=O)C3(CCC(C)=C(C)C3)NC2=S)c1 (stereo not drawn) [Compound 57]					18.3 ± 1.7 µM	IC50 [2, 12]: 80.8 ± 13.7 µM; IC50 [4, 15]: 50.6 ± 5.2 µM; IC50 [6, 14]: 35.4 ± 4.8 µM
CC1=C(C)CC2(CC1)NC(=S)N(c1ccccc1F)C2=O (racemic) [Compound 54]	> 100 µM		29.6 ± 3 µM	49.5 ± 5 µM		
CC1=C(C)CC2(CC1)NC(=S)N(c1ccc(Cl)cc1)C2=O (stereo not drawn) [Compound 59]	52.6 ± 7.8 µM	76.6 ± 16 µM	4.4 ± 0.6 µM	26.2 ± 3.9 µM		
COc1cccc(N2C(=O)C3(CC4C=CC3C4)NC2=S)c1 (stereo not drawn) [Compound 38a]	> 100 µM	> 100 µM		> 100 µM		
O=C1N(c2ccccc2)C(=S)NC12CC1C=CC2C1 (stereo not drawn) [Compound 34a]					83 ± 3.7 µM	IC50 [2, 12]: > 100 µM; IC50 [4, 15]: > 100 µM; IC50 [6, 14]: > 100 µM
CC1=C(C)CC2(CC1)NC(=S)N(c1ccc(F)c(Cl)c1)C2=O (stereo not drawn) [Compound 62]					6.8 ± 0.3 µM	MIC ([1]; Escherichia coli, BW25113): 1000 µM (≈ 339 µg/mL); IC50 [2, 12]: 9.8 ± 0.4 µM; MIC ([3]; Escherichia coli): > 1000 µM; IC50 [4, 15]: 11.1 ± 0.6 µM; IC50 [6, 14]: 7.9 ± 0.4 µM
Cc1cccc(C)c1N1C(=O)C2(CC3C=CC2CC3)NC1=S (stereo not drawn) [Compound 51a]					> 100 µM	MIC ([1]; Escherichia coli, BW25113): > 1000 µM; IC50 [2, 12]: > 100 µM; MIC ([3]; Escherichia coli): > 1000 µM; IC50 [4, 15]: > 100 µM; IC50 [6, 14]: > 100 µM
O=C1NC2(C(=O)N1c1ccccc1)C1C=CC(C1)C2Br (stereo not drawn) [Compound 40a]	> 100 µM	> 100 µM	56.4 ± 2.5 µM	> 100 µM		MIC [1, 7]: 1000 µM (≈ 333 µg/mL); MIC [3]: >1000 µM
O=C1N[C@@]2(C[C@@H]3C=C[C@H]2C3)C(=O)N1c1ccccc1Cl [Compound 75]					99 ± 11.1 µM	MIC ([1]; Escherichia coli, BW25113): 500 µM (≈ 144 µg/mL); IC50 [2, 12]: > 100 µM; MIC ([3]; Escherichia coli): > 1000 µM; IC50 [4, 15]: > 100 µM; IC50 [6, 14]: > 100 µM
CC1=C(C)CC2(CC1)NC(=S)N(c1c(C)cccc1C)C2=O (racemic) [Compound 61]		~100 µM	~4 µM	~10 µM		IC50 [2, 16]: 0.4 µM; IC50 [4, 17]: 0.9 µM; IC50 [5, 18]: 1.4 µM; IC50 [6, 19]: 4.2 µM
O=C1NC2(CC3C=CC2C3)C(=O)N1c1ccccc1 (stereo not drawn) [Compound 28b]	> 100 µM	> 100 µM	> 100 µM	> 100 µM		MIC [1, 7]: >1000 µM; MIC [3]: >1000 µM
COc1ccc(N2C(=O)C3(CC4C=CC3C4)NC2=S)cc1 (stereo not drawn) [Compound 39b]	> 100 µM	> 100 µM		> 100 µM		
COc1cccc(N2C(=O)NC3(CCC(C)=C(C)C3)C2=O)c1 (stereo not drawn) [Compound 77]						MIC ([1]; Escherichia coli, BW25113): 125 µM (≈ 37.5 µg/mL)
Cc1cccc(N2C(=O)N[C@@]3(C[C@@H]4C=C[C@H]3C4)C2=O)c1 [Compound 76]					48.6 ± 2.4 µM	MIC ([1]; Escherichia coli, BW25113): 125 µM (≈ 33.5 µg/mL); IC50 ([2]; Homo sapiens, VA-13, VA13, 65-h treatment, MTT, Cmax 100 µM, marked **, read-out: IC50abs, calculated by data extrapolation, exceeds Cmax): > 100 µM; MIC ([3]; Escherichia coli): > 1000 µM; IC50 [4, 15]: 86.4 ± 7.3 µM; IC50 ([6]; Homo sapiens, A549, 65-h treatment, MTT, Cmax 100 µM, marked **, read-out: IC50abs, calculated by data extrapolation, exceeds Cmax): > 100 µM
CC1=C(C)CC2(CC1)NC(=S)N(c1cccc(C)c1)C2=O (racemic) [Compound 56]	98.7 ± 17.6 µM		22 ± 8 µM	> 100 µM		
O=C1NC2(C(=O)N1c1ccccc1)C1C=CC(C1)C2I (stereo not drawn) [Compound 41a]	> 100 µM	> 100 µM	69.1 ± 4.8 µM	> 100 µM		MIC [1, 7]: 1000 µM (≈ 380 µg/mL); MIC [3]: >1000 µM
CC1=C(C)CC2(CC1)NC(=S)N(c1ccccc1Cl)C2=O (racemic) [Compound 55]	> 100 µM	~100 µM	~5 µM	~10 µM		MIC [1, 7]: >1000 µM; IC50 [2, 16]: 1.9 µM; MIC [3]: >1000 µM; IC50 [4, 17]: 1.5 µM; IC50 [5, 18]: 3.1 µM; IC50 [6, 19]: 2.1 µM
Cc1cccc(N2C(=O)C3(CC4C=CC3C4)NC2=S)c1 (stereo not drawn) [Compound 37a]	> 100 µM	> 100 µM	> 100 µM	> 100 µM		
CC1=C(C)CC2(CC1)NC(=S)N(c1ccc(F)cc1)C2=O (racemic) [Compound 58]	45 ± 7.5 µM	59 ± 13.3 µM	13.7 ± 2.3 µM	23.2 ± 3.5 µM		
